Measured values taken from paper PMC9570109, “Improved Trimethylangelicin Analogs for Cystic Fibrosis: Design, Synthesis and Preliminary Screening” (International Journal of Molecular Sciences, 2022).

Key:
Assay type in all cases: cell-based
[1] = system: Salmonella typhimurium TA100; assay: Ames mutagenicity assay, plate incorporation, TA100
Protocol: (§1) The mutagenicity assay was performed for the test compounds following the plate incorporation method with the histidine-requiring Salmonella typhimurium mutant TA97A, TA98, TA100, and TA1535 strains purchased by Molecular Toxicology Inc. (Boone, NC, USA; moltox.com). All strains (100 µL per plate of fresh overnight cultures) were checked with and without the addition of 0.5 mL of a 5% S9 exogenous metabolic activator (S9 mix). The lyophilized post-mitochondrial supernatant S9 mix (Aroclor 1254-induced, Sprague–Dawley male rat liver in 0.154 M KCl solution), commonly used for the activation of pro-mutagens in mutagenic metabolites (Molecular Toxicology, Inc., Boone, NC, USA), was stored at −80 °C before use. The concentration tested for all the samples were 5, 10, 20, 50, and 100 µL/plate from a stock solution of 500 nM. A fully grown culture of the appropriate tester strain (0.1 mL) was added to 2 mL molten top agar (0.6% agar, 0.6% NaCl, 0.5 mM L-histidine/biotin solution) at 46 °C, together with 0.1 mL of each sample solution at different concentrations, and 0.5 mL S9 mix for assays with metabolic activation. The ingredients were thoroughly mixed and poured onto minimal glucose agar plates (1.5% agar in 2% Vogel–Bonner medium E with 5% glucose solution). DMSO was used as negative a control (100 µL/plate). Positive controls were prepared as follows: 2-aminoanthracene (2 µg/plate) and 2-nitrofluorene (2 µg/plate) for TA 97A, TA98 and TA1535 with and without metabolic activator (S9 mix), respectively; 2-aminoanthracene (2 µg/plate) and sodium azide (2 µg/plate) for TA100, with and without metabolic activator (S9 mix), respectively. The plates were incubated at 37 °C for 72 h and then his+ revertants were checked and counted using a Colony Counter 560 Suntex (Antibioticos, Italy). A sample was considered mutagenic when the observed number of colonies was at least twofold over the spontaneous level of revertants. All determinations were made in triplicate. Statistical analysis: relative standard deviations were calculated using the statistical software STATISTICA 6.0 (StatSoft, Italia srl, Vigonza, Italy). […]
(§2) Salmonella typhimurium TA97A Salmonella typhimurium TA98 Salmonella typhimurium TA100 Salmonella typhimurium 1535 […]
(§3) average SD t/c average SD t/c average SD t/c average SD t/c average SD t/c average SD t/c average SD t/c average SD t/c […]
(§4) *Significant values according to Ames computation (Maron & Ames, 1983); DMSO, C+: negative and positive controls respectively; SD: Standard Deviation; t/c: number of revertant colonies in treated plates/number of revertant colonies in […]

[2] = system: Salmonella typhimurium TA97A; assay: Ames mutagenicity assay, plate incorporation, TA97A
Protocol: as §1, §2, §3, §4

[3] = system: Salmonella typhimurium 1535; assay: Ames mutagenicity assay, plate incorporation, TA1535
Protocol: as §1, §2, §3, §4

[4] = system: Salmonella typhimurium TA98; assay: Ames mutagenicity assay, plate incorporation, TA98
Protocol: as §1, §2, §3, §4

[5] = TA100, +S9, 5 µL/plate of 500 nM stock
[6] = TA100, +S9, 10 µL/plate of 500 nM stock
[7] = TA100, +S9, 20 µL/plate of 500 nM stock
[8] = TA100, +S9, 50 µL/plate of 500 nM stock
[9] = TA100, +S9, 100 µL/plate of 500 nM stock
[10] = TA100, -S9, 5 µL/plate of 500 nM stock
[11] = TA100, -S9, 10 µL/plate of 500 nM stock
[12] = TA100, -S9, 20 µL/plate of 500 nM stock
[13] = TA100, -S9, 50 µL/plate of 500 nM stock
[14] = TA100, -S9, 100 µL/plate of 500 nM stock
[15] = +S9, 5 µL/plate of 500 nM stock
[16] = +S9, 10 µL/plate of 500 nM stock
[17] = +S9, 20 µL/plate of 500 nM stock
[18] = +S9, 50 µL/plate of 500 nM stock
[19] = +S9, 100 µL/plate of 500 nM stock
[20] = -S9, 5 µL/plate of 500 nM stock
[21] = -S9, 10 µL/plate of 500 nM stock
[22] = -S9, 20 µL/plate of 500 nM stock
[23] = -S9, 50 µL/plate of 500 nM stock
[24] = -S9, 100 µL/plate of 500 nM stock
[25] = 1535, +S9, 5 µL/plate of 500 nM stock
[26] = 1535, +S9, 10 µL/plate of 500 nM stock
[27] = 1535, +S9, 20 µL/plate of 500 nM stock
[28] = 1535, +S9, 50 µL/plate of 500 nM stock
[29] = 1535, +S9, 100 µL/plate of 500 nM stock
[30] = 1535, -S9, 5 µL/plate of 500 nM stock
[31] = 1535, -S9, 10 µL/plate of 500 nM stock
[32] = 1535, -S9, 20 µL/plate of 500 nM stock
[33] = 1535, -S9, 50 µL/plate of 500 nM stock
[34] = 1535, -S9, 100 µL/plate of 500 nM stock
[35] = TA98, +S9, 5 µL/plate of 500 nM stock
[36] = TA98, +S9, 10 µL/plate of 500 nM stock
[37] = TA98, +S9, 20 µL/plate of 500 nM stock
[38] = TA98, +S9, 50 µL/plate of 500 nM stock
[39] = TA98, +S9, 100 µL/plate of 500 nM stock
[40] = TA98, -S9, 5 µL/plate of 500 nM stock
[41] = TA98, -S9, 10 µL/plate of 500 nM stock
[42] = TA98, -S9, 20 µL/plate of 500 nM stock
[43] = TA98, -S9, 50 µL/plate of 500 nM stock
[44] = TA98, -S9, 100 µL/plate of 500 nM stock

Cc1cc(=O)oc2c1cc(-c1ccccc1)c1occ(C)c12 [6-PhDMA]
revertant colonies, average [1, 5]: 182.0
t/c (revertant colonies treated/untreated plates) [1, 5]: 1.1
revertant colonies, average [1, 6]: 178.5
t/c (revertant colonies treated/untreated plates) [1, 6]: 1.0
revertant colonies, average [1, 7]: 184.5
t/c (revertant colonies treated/untreated plates) [1, 7]: 1.1
revertant colonies, average [1, 8]: 178.0
t/c (revertant colonies treated/untreated plates) [1, 8]: 1.0
revertant colonies, average [1, 9]: 203.0
t/c (revertant colonies treated/untreated plates) [1, 9]: 1.2
revertant colonies, average [1, 10]: 186.5
t/c (revertant colonies treated/untreated plates) [1, 10]: 1.0
revertant colonies, average [1, 11]: 220.0
t/c (revertant colonies treated/untreated plates) [1, 11]: 1.1
revertant colonies, average [1, 12]: 172.0
t/c (revertant colonies treated/untreated plates) [1, 12]: 0.9
revertant colonies, average [1, 13]: 202.5
t/c (revertant colonies treated/untreated plates) [1, 13]: 1.0
revertant colonies, average [1, 14]: 185.5
t/c (revertant colonies treated/untreated plates) [1, 14]: 0.9
revertant colonies, average [2, 15]: 116.5
t/c (revertant colonies treated/untreated plates) [2, 15]: 1.1
revertant colonies, average [2, 16]: 92.5
t/c (revertant colonies treated/untreated plates) [2, 16]: 0.8
revertant colonies, average [2, 17]: 99.0
t/c (revertant colonies treated/untreated plates) [2, 17]: 0.9
revertant colonies, average [2, 18]: 107.0
t/c (revertant colonies treated/untreated plates) [2, 18]: 1.0
revertant colonies, average [2, 19]: 101.0
t/c (revertant colonies treated/untreated plates) [2, 19]: 0.9
revertant colonies, average [2, 20]: 75.0
t/c (revertant colonies treated/untreated plates) [2, 20]: 1.0
revertant colonies, average [2, 21]: 69.5
t/c (revertant colonies treated/untreated plates) [2, 21]: 0.9
revertant colonies, average [2, 22]: 86.5
t/c (revertant colonies treated/untreated plates) [2, 22]: 1.1
revertant colonies, average [2, 23]: 79.5
t/c (revertant colonies treated/untreated plates) [2, 23]: 1.0
revertant colonies, average [2, 24]: 88.5
t/c (revertant colonies treated/untreated plates) [2, 24]: 1.1
revertant colonies, average [3, 25]: 13.5
t/c (revertant colonies treated/untreated plates) [3, 25]: 1.3
revertant colonies, average [3, 26]: 12.5
t/c (revertant colonies treated/untreated plates) [3, 26]: 1.2
revertant colonies, average [3, 27]: 10.0
t/c (revertant colonies treated/untreated plates) [3, 27]: 0.9
revertant colonies, average [3, 28]: 10.0
t/c (revertant colonies treated/untreated plates) [3, 28]: 0.9
revertant colonies, average [3, 29]: 14.0
t/c (revertant colonies treated/untreated plates) [3, 29]: 1.3
revertant colonies, average [3, 30]: 13.5
t/c (revertant colonies treated/untreated plates) [3, 30]: 1.2
revertant colonies, average [3, 31]: 14.5
t/c (revertant colonies treated/untreated plates) [3, 31]: 1.3
revertant colonies, average [3, 32]: 7.5
t/c (revertant colonies treated/untreated plates) [3, 32]: 0.7
revertant colonies, average [3, 33]: 8.0
t/c (revertant colonies treated/untreated plates) [3, 33]: 0.7
revertant colonies, average [3, 34]: 9.0
t/c (revertant colonies treated/untreated plates) [3, 34]: 0.8
revertant colonies, average [4, 35]: 45.5
t/c (revertant colonies treated/untreated plates) [4, 35]: 1.0
revertant colonies, average [4, 36]: 49.5
t/c (revertant colonies treated/untreated plates) [4, 36]: 1.1
revertant colonies, average [4, 37]: 46.5
t/c (revertant colonies treated/untreated plates) [4, 37]: 1.0
revertant colonies, average [4, 38]: 46.0
t/c (revertant colonies treated/untreated plates) [4, 38]: 1.0
revertant colonies, average [4, 39]: 45.0
t/c (revertant colonies treated/untreated plates) [4, 39]: 1.0
revertant colonies, average [4, 40]: 37.5
t/c (revertant colonies treated/untreated plates) [4, 40]: 1.0
revertant colonies, average [4, 41]: 41.0
t/c (revertant colonies treated/untreated plates) [4, 41]: 1.1
revertant colonies, average [4, 42]: 38.0
t/c (revertant colonies treated/untreated plates) [4, 42]: 1.0
revertant colonies, average [4, 43]: 43.5
t/c (revertant colonies treated/untreated plates) [4, 43]: 1.1
revertant colonies, average [4, 44]: 40.0
t/c (revertant colonies treated/untreated plates) [4, 44]: 1.0
